Assays:
[1] = molecular target: phosphorylated FGFR3 (SEQ ID NO: 5, amino acids 449 to 759) (Homo sapiens (Human), UniProt P22607); assay: FGFR enzyme binding assay (HTRF tracer displacement), FGFR3; conditions: 5 nM phosphorylated FGFR3, average of multiple determinations if made
Method in brief: (§1)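 Kinase and tracer were incubated with compound for 60 minutes at 22° C. Tracer displacement was then measured by HTRF, and results were expressed as POC with 1 μM control inhibitor defining full displacement.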

[2] = molecular target: recombinant human FGFR2 cytoplasmic domain (amino acids 403-822) (Homo sapiens (Human), UniProt P21802); assay: FGFR2 enzyme activity assay (LanthaScreen TR-FRET); type: biochemical; conditions: 15 μM ATP, 20 min incubation at 22° C., average of multiple determinations if made, read-out: FGFR2 Enz FRET IC50
Sequence of recombinant human FGFR2 cytoplasmic domain (amino acids 403-822) (P21802 402-821): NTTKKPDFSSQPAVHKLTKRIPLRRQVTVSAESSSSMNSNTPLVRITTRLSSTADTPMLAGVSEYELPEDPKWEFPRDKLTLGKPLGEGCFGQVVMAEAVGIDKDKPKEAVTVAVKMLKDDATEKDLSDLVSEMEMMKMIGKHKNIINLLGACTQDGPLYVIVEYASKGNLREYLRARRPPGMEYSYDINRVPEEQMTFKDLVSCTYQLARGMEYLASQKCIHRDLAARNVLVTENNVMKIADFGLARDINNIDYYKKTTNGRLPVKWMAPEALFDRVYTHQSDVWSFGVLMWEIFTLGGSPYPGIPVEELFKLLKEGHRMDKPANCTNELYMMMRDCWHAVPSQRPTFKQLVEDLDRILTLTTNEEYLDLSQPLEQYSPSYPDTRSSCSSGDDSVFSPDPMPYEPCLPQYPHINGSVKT
Method in brief: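 Substrate phosphorylation was read by TR-FRET using Eu-PY20 antibody (60 min, 22 °C) after a 20 min, 22 °C reaction. The reaction used 15 μM ATP, 100 nM fluorescent poly-GT peptide and His-tagged FGFR2 403-822 ([…]) at pH 7.5 with 2% DMSO.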

[3] = molecular target: recombinant human FGFR3 (amino acids R397-T806) (Homo sapiens (Human), UniProt P22607); assay: FGFR3 enzyme activity assay (LanthaScreen TR-FRET); type: biochemical; conditions: 25 μM ATP, 10 min incubation at 22° C., average of multiple determinations if made, read-out: FGFR3 Enz FRET IC50
Sequence of recombinant human FGFR3 (amino acids R397-T806) (P22607 397-806): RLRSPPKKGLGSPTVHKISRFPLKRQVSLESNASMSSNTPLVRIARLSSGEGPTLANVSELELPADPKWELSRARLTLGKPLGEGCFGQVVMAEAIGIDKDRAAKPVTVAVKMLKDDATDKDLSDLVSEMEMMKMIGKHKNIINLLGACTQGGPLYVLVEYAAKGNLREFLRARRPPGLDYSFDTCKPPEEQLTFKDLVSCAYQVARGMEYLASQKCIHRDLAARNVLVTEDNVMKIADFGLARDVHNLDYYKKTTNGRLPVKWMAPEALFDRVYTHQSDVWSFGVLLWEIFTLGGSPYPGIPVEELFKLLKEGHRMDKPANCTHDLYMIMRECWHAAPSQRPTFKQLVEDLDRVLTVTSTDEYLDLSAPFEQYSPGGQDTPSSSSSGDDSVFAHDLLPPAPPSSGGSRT
Method in brief: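 GST-HIS6-tagged human FGFR3 (R397-T806) was reacted with 100 nM Alexa Fluor 647-Poly-GT substrate and 25 μM ATP plus compound in HEPES/MgCl2/Triton buffer, pH 7.5, 2% DMSO, for 10 min at 22 °C.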

[4] = molecular target: FGFR3 (SEQ ID NO: 5, amino acids 449-759) (Homo sapiens (Human), UniProt P22607); assay: LC/MS FGFR3 kobs assay (covalent protein modification); type: binding; conditions: 500 nM FGFR3, 3 μM compound
Sequence of FGFR3 (SEQ ID NO: 5, amino acids 449-759) (P22607 449-759): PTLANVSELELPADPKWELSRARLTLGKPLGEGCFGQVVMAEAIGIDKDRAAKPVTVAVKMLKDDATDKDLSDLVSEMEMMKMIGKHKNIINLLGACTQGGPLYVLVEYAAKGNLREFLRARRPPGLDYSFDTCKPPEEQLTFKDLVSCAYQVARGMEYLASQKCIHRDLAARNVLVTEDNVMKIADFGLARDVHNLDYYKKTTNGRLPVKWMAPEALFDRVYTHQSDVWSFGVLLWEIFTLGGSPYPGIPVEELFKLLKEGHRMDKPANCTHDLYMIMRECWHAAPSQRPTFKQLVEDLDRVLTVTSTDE
Method in brief: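 Samples are acid-quenched at set times and read by Q-TOF mass spectrometry. kobs is obtained by fitting DMSO-normalized percent unmodified protein to an exponential decay model.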

[5] = molecular target: T1, HEK-293 cells transfected with dox-inducible human wild type FGFR3 (Homo sapiens (Human), UniProt P22607); assay: FGFR3 pFGFR cell assay (ELISA); type: cell-based; conditions: HEK-293 dox-inducible FGFR3, 1 hour compound, 100 ng/ml FGF-acidic
T1 sequence (P22607 23-806): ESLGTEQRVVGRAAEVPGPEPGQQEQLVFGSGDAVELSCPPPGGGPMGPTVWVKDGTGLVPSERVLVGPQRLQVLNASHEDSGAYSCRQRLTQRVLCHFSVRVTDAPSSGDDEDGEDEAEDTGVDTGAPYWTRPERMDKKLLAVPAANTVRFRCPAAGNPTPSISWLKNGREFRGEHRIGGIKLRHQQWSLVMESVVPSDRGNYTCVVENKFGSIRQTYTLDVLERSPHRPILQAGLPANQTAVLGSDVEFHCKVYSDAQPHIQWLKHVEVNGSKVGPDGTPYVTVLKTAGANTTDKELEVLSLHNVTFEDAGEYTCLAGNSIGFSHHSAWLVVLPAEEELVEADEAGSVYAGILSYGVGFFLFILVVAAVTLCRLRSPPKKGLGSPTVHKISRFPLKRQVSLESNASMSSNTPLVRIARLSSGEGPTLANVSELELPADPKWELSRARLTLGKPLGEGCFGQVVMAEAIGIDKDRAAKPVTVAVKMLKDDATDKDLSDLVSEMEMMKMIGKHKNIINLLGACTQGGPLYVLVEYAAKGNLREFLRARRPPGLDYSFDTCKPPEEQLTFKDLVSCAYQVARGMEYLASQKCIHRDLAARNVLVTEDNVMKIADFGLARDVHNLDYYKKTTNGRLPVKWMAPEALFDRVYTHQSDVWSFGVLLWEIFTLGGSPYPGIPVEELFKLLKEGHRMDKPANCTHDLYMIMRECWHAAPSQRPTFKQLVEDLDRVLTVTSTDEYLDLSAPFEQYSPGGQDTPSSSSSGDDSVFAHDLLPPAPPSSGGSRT
Description: FGFR3 pFGFR Cell Assay: • HEK-293 cells transfected with dox-inducible human wild type FGFR3 (SEQ ID NO: 5) were plated in a collagen or poly-D-lysine coated 96 well flat bottom plates at 4×10^5 cells/well in complete DMEM medium containing 10% FBS and 1 μg/ml doxycycline and allowed to attach for 24 h at 37° C., 5% CO2. Cells were treated with compound using 1:3 serial dilutions with a top final concentration of 5 μM. Compound was incubated on cells for 1 hour at 37° C., 5% CO2. Cells were then stimulated with a final concentration of 100 ng/ml human FGF-acidic for 5 minutes at 37° C., 5% CO2. Medium was removed and cells were lysed with lysis buffer containing phosphatase and protease inhibitors. Phospho FGFR3 was measured by ELISA (R&D Systems cat DYC2719). The ELISA captures total FGFR3 and detects total phospho tyrosine. Optical density was measured for each well using a Versamax reader at a wavelength of 450 nm. 100 POC was determined using no test compounds and 0 POC was determined using a control compound. The POC values were fit to a 4-parameter logistic curve as a function of the concentration of the compound, and the IC50 value is the point where the curve crosses 50 POC.

[6] = molecular target: HEK-293 cells transfected with dox-inducible human wild type FGFR1 (Homo sapiens (Human), UniProt P11362); assay: FGFR1 pERK cell assay; type: cell-based; conditions: HEK-293 dox-inducible FGFR1, 1 hour compound, 100 ng/ml FGF-acidic; maximum concentration 5 μM
Sequence of HEK-293 cells transfected with dox-inducible human wild type FGFR1 (P11362 22-822): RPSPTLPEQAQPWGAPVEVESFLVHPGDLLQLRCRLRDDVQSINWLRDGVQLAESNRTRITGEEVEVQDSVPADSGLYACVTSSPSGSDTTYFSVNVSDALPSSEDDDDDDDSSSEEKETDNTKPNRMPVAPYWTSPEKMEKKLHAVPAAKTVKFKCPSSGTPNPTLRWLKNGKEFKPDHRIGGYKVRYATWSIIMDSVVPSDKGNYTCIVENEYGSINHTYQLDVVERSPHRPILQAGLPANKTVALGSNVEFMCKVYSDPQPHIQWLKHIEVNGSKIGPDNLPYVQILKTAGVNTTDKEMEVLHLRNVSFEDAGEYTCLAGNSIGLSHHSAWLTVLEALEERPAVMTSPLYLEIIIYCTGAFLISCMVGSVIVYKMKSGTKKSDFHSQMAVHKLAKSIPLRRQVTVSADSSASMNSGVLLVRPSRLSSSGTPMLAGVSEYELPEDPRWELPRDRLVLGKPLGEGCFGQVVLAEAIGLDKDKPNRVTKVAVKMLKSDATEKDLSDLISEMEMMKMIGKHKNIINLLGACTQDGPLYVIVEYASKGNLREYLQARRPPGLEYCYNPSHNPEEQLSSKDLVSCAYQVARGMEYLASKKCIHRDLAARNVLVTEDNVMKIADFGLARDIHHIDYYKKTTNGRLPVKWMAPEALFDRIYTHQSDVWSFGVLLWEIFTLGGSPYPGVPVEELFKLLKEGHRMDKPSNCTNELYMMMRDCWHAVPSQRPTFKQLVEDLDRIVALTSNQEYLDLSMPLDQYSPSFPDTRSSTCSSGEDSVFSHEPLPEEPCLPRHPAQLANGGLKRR
Description: (§2) FGFR1 pERK Cell Assay: • HEK-293 cells transfected with doxycycline(dox)-inducible human wild type FGFR1 (SEQ ID NO: 1) were plated in a collagen or poly-D-lysine coated 96 well flat bottom plates at 4×10^5 cells/well in complete Dulbecco's Modified Eagle Medium (DMEM) containing 10% FBS and 1 μg/ml doxycycline and allowed to attach for 24 h at 37° C., 5% CO2. Cells were treated with compound using 1:3 serial dilutions with a maximum final concentration of 5 μM. Compound was incubated on cells for 1 hour at 37° C., 5% CO2. Cells were then stimulated with a final concentration of 100 ng/ml human FGF-acidic (R&D Systems Cat number 232-FA/CF) for 5 minutes at 37° C., 5% CO2. Medium was removed, and cells were lysed with lysis buffer containing phosphatase and protease inhibitors. Phospho ERK1/2 was measured using the Meso Scale Discovery sandwich assay (Meso Scale Discovery cat. no. K151DWD). The assay captures phospho ERK1/2 and detects with a sulfo-tagged total ERK1/2 antibody. The chemiluminescent signal was read on the Sector Imager Plate reader. 100 POC was determined using no test compound and 0 POC was determined using a control compound. The POC values were fit to a 4-parameter logistic curve as a function of the concentration of the compound, and the IC50 value is the point where the curve crosses 50 POC.

[7] = molecular target: T1, HEK-293 cells transfected with dox-inducible human wild type FGFR3; assay: FGFR3 pERK cell assay; type: cell-based; conditions: HEK-293 dox-inducible FGFR3, 1 hour compound, 100 ng/ml FGF-acidic; maximum concentration 5 μM
Description: as §2, with “FGFR3 pERK” for “FGFR1 pERK”, “with dox-inducible” for “with doxycycline(dox)-inducible”, “type FGFR3” for “type FGFR1”, “NO: 5)” for “NO: 1)”, “complete DMEM medium” for “complete Dulbecco's Modified Eagle Medium (DMEM)”, “test compounds” for “test compound”

[8] = molecular target: dephosphorylated FGFR1 (SEQ ID NO: 1, amino acids 458 to 765) (Homo sapiens (Human), UniProt P11362); assay: FGFR enzyme binding assay (HTRF tracer displacement), FGFR1; conditions: 5 nM dephosphorylated FGFR1, average of multiple determinations if made
Sequence of dephosphorylated FGFR1 (SEQ ID NO: 1, amino acids 458 to 765) (P11362 458-765): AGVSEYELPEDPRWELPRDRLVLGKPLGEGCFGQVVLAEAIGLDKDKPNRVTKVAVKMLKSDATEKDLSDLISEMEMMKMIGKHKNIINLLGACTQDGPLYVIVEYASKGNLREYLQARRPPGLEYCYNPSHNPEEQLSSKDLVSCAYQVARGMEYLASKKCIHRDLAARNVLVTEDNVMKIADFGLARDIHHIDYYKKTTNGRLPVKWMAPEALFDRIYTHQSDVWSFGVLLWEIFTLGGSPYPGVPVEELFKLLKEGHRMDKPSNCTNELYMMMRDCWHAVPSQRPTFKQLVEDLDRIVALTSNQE
Method in brief: as §1

[9] = molecular target: recombinant human FGFR1 catalytic domain (amino acids 308-731) (Homo sapiens (Human), UniProt P11362); assay: FGFR1 enzyme activity assay (LanthaScreen TR-FRET); type: biochemical; conditions: 20 min incubation at 22° C., average of multiple determinations if made, read-out: FGFR1 Enz FRET IC50
Sequence of recombinant human FGFR1 catalytic domain (amino acids 308-731) (P11362 other isoform, or with tags, fused parts or gaps): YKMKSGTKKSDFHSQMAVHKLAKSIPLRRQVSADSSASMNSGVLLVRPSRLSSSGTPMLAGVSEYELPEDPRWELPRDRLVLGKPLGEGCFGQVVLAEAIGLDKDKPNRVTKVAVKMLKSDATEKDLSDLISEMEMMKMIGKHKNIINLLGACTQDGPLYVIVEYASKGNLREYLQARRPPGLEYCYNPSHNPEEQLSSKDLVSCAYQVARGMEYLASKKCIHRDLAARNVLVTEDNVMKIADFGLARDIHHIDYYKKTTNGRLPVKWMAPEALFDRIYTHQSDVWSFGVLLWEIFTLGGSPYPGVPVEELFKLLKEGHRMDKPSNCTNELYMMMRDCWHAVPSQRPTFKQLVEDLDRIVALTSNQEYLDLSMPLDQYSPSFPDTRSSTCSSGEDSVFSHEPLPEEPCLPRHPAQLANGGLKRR
Method in brief: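 His-tagged FGFR1 kinase domain with 100 nM Alexa Fluor 647-poly-GT peptide and ATP in pH 7.5 HEPES/MgCl2 buffer with 2% DMSO, 20 min at 22 °C. Quenched with EDTA plus 2 nM Eu-PY20 antibody and read after 60 min. IC50 comes from a 4-parameter fit of percent of control.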

[10] = molecular target: FGFR1 (SEQ ID NO: 1, amino acids 458-765) (Homo sapiens (Human), UniProt P11362); assay: LC/MS FGFR1 kobs assay (covalent protein modification); type: binding; conditions: 500 nM FGFR1, 3 μM compound
Sequence of FGFR1 (SEQ ID NO: 1, amino acids 458-765) (P11362 458-765): as the sequence (P11362 458-765) above
Method in brief: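 Covalent labeling of FGFR1 kinase domain (aa 458-765) tracked over time by intact-protein LC/MS after formic acid quench. kobs derived by fitting DMSO-normalized percent unmodified FGFR1 to an exponential decay model.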

Sequence of phosphorylated FGFR3 (SEQ ID NO: 5, amino acids 449 to 759) (P22607 449-759): as the sequence (P22607 449-759) above

| SMILES | IC50 [1] | IC50 [2] | IC50 [3] | FGFR3 Enz kobs [4] | IC50 [5] | IC50 [6] | IC50 [7] | IC50 [8] | IC50 [9] | FGFR1 Enz kobs [10] |
| --- | --- | --- | --- | --- | --- | --- | --- | --- | --- | --- |
| C=CC(=O)N1CCC(C(=O)N2CCC(n3cc(-c4cc(OC)c5c(C#N)cnn5c4)cn3)CC2)CC1 [Example 12, 6-(1-(1-(1-acryloylpiperidine-4-carbonyl)piperidin-4-yl)-1H-pyrazol-4-yl)-4-methoxypyrazolo[1,5-a]pyridine-3-carbonitrile] | 32 nM | 3 nM | 3 nM | 0.00231 min⁻¹ | 242 nM |  |  |  |  |  |
| C=CC(=O)Nc1ccc(S(=O)(=O)N2CCC(n3cc(-c4cc(OC)c5c(C#N)cnn5c4)cn3)CC2)cc1 [Example 49, N-(4-((4-(4-(3-cyano-4-methoxypyrazolo[1,5-a]pyridin-6-yl)-1H-pyrazol-1-yl)piperidin-1-yl)sulfonyl)phenyl)acryl-amide (2,2,2-trifluoroacetate)] |  |  |  |  | 20 nM |  |  |  |  |  |
| C=C(F)C(=O)N1CC(C(=O)N2CCC(n3cc(-c4cc(OC)c5c(C#N)cnn5c4)cn3)CC2)C1 [Example 140, 6-(1-(1-(1-(2-fluoroacryloyl)azet-idine-3-carbonyl)piperidin-4-yl)-1H-pyrazol-4-yl)-4-methoxypyrazolo [1,5-a]pyridine-3-carbonitrile] |  |  |  |  |  | 206 nM | 105 nM |  |  |  |
| COc1cc(-c2cnn(C3CN(CC4CN(C(=O)/C=C/CN(C)C)C4)C3)c2)cn2ncc(C#N)c12 [Example 148] |  |  |  |  | 351 nM |  |  |  |  |  |
| COc1cc(-c2cnn(C3CN(C(=O)C4CN(C(=O)/C=C/CN(C)C)C4)C3)c2)cn2ncc(C#N)c12 [Example 150] |  |  |  |  | 2320 nM |  |  |  |  |  |
| COc1cc(-c2cnn(C3CCN(C(=O)C4CN(C(=O)C#CCN(C)C)C4)CC3)c2)cn2ncc(C#N)c12 [Example 176, 6-(1-(1-(1-(4-(dimethylamino)but-2-ynoyl)azetidine-3-carbonyl)piperidin-4-yl)-1H-pyrazol-4-yl)-4-methoxypyrazolo[1,5-a]pyridine-3-carbonitrile] | 15 nM |  | 1160 nM |  | 18 nM |  |  | 136 nM | 1200 nM | 0.0497 min⁻¹ |
| C=CS(=O)(=O)N1CC[C@@H](C(=O)N2CCC(n3cc(-c4cc(OC)c5c(C#N)cnn5c4)cn3)CC2)C1 [Example 185] | 4 nM | 5 nM | 3 nM | 0.06081 min⁻¹ | 12 nM |  |  |  |  |  |
| C=CS(=O)(=O)N[C@H]1CC[C@H](C(=O)N2CCC(n3cc(-c4cc(OC)c5c(C#N)cnn5c4)cn3)CC2)CC1 [Example 187, N-((1r,4r)-4-(4-(4-(3-cyano-4-methoxypyrazolo[1,5-a]pyridin-6-yl)-1H-pyrazol-1-yl)piperidine-1-carbonyl)cyclohexyl) ethenesulfonamide] |  |  |  |  | 74 nM |  |  |  |  |  |
| C=CS(=O)(=O)N1CC[C@H](C(=O)N2CCC(n3cc(-c4cc(OC)c5c(C#N)cnn5c4)cn3)CC2)C1 [Example 189, (S)-4-methoxy-6-(1-(1-(1-(vinylsulfonyl)pyrrol-idine-3-carbonyl)piperidin-4-yl)-1H-pyrazol-4-yl)pyrazolo[1,5-a]pyridine-3-carbonitrile] | 3 nM | 3 nM | 4 nM | 0.0728 min⁻¹ | 9 nM |  |  |  |  |  |
| C=CS(=O)(=O)N1CC(C(=O)N2CCC(n3cc(-c4cc(OC)c5c(C#N)cnn5c4)cn3)CC2)C1 [Example 192, 4-methoxy-6-(1-(1-(1-(vinylsulfonyl)azetidine-3-carbonyl)piperidin-4-yl)-1H-pyrazol-4-yl)pyrazolo[1,5-a]pyridine-3-carbonitrile] | 12 nM | 9 nM | 3 nM | 0.1008 min⁻¹ | 12 nM |  |  | 70 nM | 14 nM |  |
| C=CS(=O)(=O)N1CCC2(CC1)CC(C(=O)N1CCC(n3cc(-c4cc(OC)c5c(C#N)cnn5c4)cn3)CC1)C2 [Example 195, 4-methoxy-6-(1-(1-(7-(vinylsulfonyl)-7-azaspiro[3.5]nonane-2-carbonyl)piperidin-4-yl)-1H-pyrazol-4-yl)pyrazolo[1,5-a]pyridine-3-carbonitrile] | 4 nM | 7 nM | 5 nM | 0.02572 min⁻¹ | 14 nM |  |  | 50 nM | 19 nM |  |
| C=CS(=O)(=O)Nc1ccc(C(=O)N2CCC(n3cc(-c4cc(OC)c5c(C#N)cnn5c4)cn3)CC2)cc1 [Example 196, N-(4-(4-(4-(3-cyano-4-methoxypyrazolo[1,5-a]pyridin-6-yl)-1H-pyrazol-1-yl)piperidine-1-carbonyl)phenyl)ethenesulfonamide] |  |  |  |  | 26 nM |  |  |  |  |  |
